Measurements from PubChem BioAssay (NCI).
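Results reflect a 48-hour exposure of cells in 96-well plates to compound at five concentrations. Here, GI50 denotes the concentration required for 50% inhibition of growth. The concentration for full growth arrest is given as TGI.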

Legend:
Test in all cases: growth of human tumour cells (NCI), 48 h
SNB-75 CNS = test system: SNB-75 CNS
K-562 leukemia = test system: K-562 leukemia
EKVX NSCLC = test system: EKVX NSCLC
MDA-N = test system: MDA-N
A549 NSCLC = test system: A549 NSCLC
SF-539 CNS = test system: SF-539 CNS
HCT-15 colon = test system: HCT-15 colon
NCI-H522 lung = test system: NCI-H522 lung
MCF7 breast = test system: MCF7 breast
OVCAR-4 ovarian = test system: OVCAR-4 ovarian
HL-60(TB) leukemia = test system: HL-60(TB) leukemia
SK-MEL-28 melanoma = test system: SK-MEL-28 melanoma

Structure (SMILES) | TGI (SNB-75 CNS) | TGI (K-562 leukemia) | TGI (EKVX NSCLC) | TGI (MDA-N) | TGI (A549 NSCLC) | TGI (SF-539 CNS) | TGI (HCT-15 colon) | TGI (NCI-H522 lung) | TGI (MCF7 breast) | TGI (OVCAR-4 ovarian) | TGI (HL-60(TB) leukemia) | TGI (SK-MEL-28 melanoma) | GI50 (K-562 leukemia) | GI50 (MDA-N) | GI50 (A549 NSCLC) | GI50 (NCI-H522 lung) | GI50 (MCF7 breast) | GI50 (HL-60(TB) leukemia) | GI50 (SK-MEL-28 melanoma)
O=C1NC(N/N=C/c2ccccc2)=N/C1=C\c1cccs1 | 51.8 µM | > 80.3 µM | 47.3 µM | > 25.2 µM | > 100 µM | 26.6 µM | 48.5 µM | 5.61 µM | 46.5 µM | > 68.9 µM | 36.7 µM | 37.7 µM |  |  |  |  |  |  | 
COc1ccc(C(=O)Cn2c(C(C)=O)nc3ccccc32)cc1 | > 100 µM | > 100 µM | > 100 µM | > 100 µM | > 100 µM | > 100 µM | > 100 µM | > 100 µM | > 100 µM | > 100 µM | > 43.8 µM | > 100 µM |  |  |  |  |  |  | 
CCN(CC)c1nc(N(C)C)c2ccc(OC)cc2n1 | 66.6 µM | 66.6 µM | 21.8 µM | 22 µM | > 100 µM | 49.6 µM | > 100 µM | 30.3 µM | 25 µM | > 100 µM | 17.2 µM | 32.4 µM |  |  |  |  |  |  | 
CC(=O)O[C@H]1[C@H](OC(C)=O)[C@@H](CN=[N+]=[N-])OCO[C@@H]1CN=[N+]=[N-] | > 100 µM | > 100 µM | > 100 µM | > 100 µM | > 100 µM | > 100 µM | > 100 µM | > 100 µM | > 100 µM | > 100 µM | > 100 µM | > 100 µM |  |  |  |  |  |  | 
O=c1c[n+](-c2ccccc2)[nH]o1 | > 100 µM | > 100 µM | > 100 µM | > 100 µM | > 100 µM | > 100 µM | > 100 µM |  | > 100 µM | > 100 µM | > 100 µM | > 100 µM |  |  |  |  |  |  | 
O=C1C=CC[C@H](/C=C/C[C@@H](O)C[C@H](O)/C=C/c2ccccc2)O1 | 26.4 µM | 42.3 µM | 25.2 µM | 24.9 µM | 33.5 µM | 21.5 µM | 23 µM | 18 µM | 24.8 µM | 28.4 µM | 17.7 µM | 30.8 µM |  |  |  |  |  |  | 
CC(C)c1ccc2c(c1)C=C1OC(=O)[C@]3(C)CCC[C@@]2(C)C13 (some centres undefined) | > 100 µM | > 100 µM | > 100 µM | > 100 µM | > 100 µM | > 100 µM | > 100 µM | > 100 µM | > 100 µM | > 100 µM | > 100 µM | > 100 µM |  |  |  |  |  |  | 
BrCCC[P+](c1ccccc1)(c1ccccc1)c1ccccc1 | 59.2 µM | > 100 µM | > 100 µM | > 76.5 µM | > 63.8 µM | > 100 µM | > 100 µM | > 27.5 µM | > 100 µM | > 100 µM | 6.49 µM | > 100 µM |  |  |  |  |  |  | 
NC1=NN(c2ccccc2)C2(c3ccncc3C(=O)O)C1C(N)=NN2c1ccccc1 (centres undefined) | > 100 µM | > 100 µM | > 100 µM | > 100 µM | > 100 µM | > 100 µM | > 100 µM | > 100 µM | > 100 µM | > 100 µM | > 100 µM | > 100 µM |  |  |  |  |  |  | 
CCOC(=O)/C=C(\C(=O)OCC)n1cnc2c(N)ncnc21 | 26 µM | 5.52 µM | 30.7 µM | 29.3 µM | 32.2 µM | 29.3 µM | 12.2 µM | 6.09 µM | 11.9 µM | > 48.7 µM | 2.78 µM | 27.8 µM |  |  |  |  |  |  | 
O=C(N/N=C/C=C/c1ccc([N+](=O)[O-])o1)c1ccc(Br)s1 | > 100 µM | > 100 µM | 95.9 µM | 56.7 µM | > 100 µM | 74.5 µM | 35.7 µM |  | > 100 µM | 40.2 µM | 87.2 µM | 52.3 µM |  |  |  |  |  |  | 
COc1cc(/C=C/c2sc3ccccc3[n+]2C)ccc1N(C)C |  | 6.16 µM | > 100 µM | 22.2 µM | > 100 µM | 31.6 µM | > 100 µM | 15.8 µM | 19.5 µM | 40.1 µM | 3.88 µM | 25.7 µM | 1.86 µM | 7.11 µM | 7.08 µM | 0.467 µM | 6.78 µM | 1.75 µM | 12.4 µM
COC1=CC(=O)c2c(O)ccc(O)c2C1=O | 3.65 µM | > 100 µM | 37.8 µM | 1.9 µM | 4.09 µM | 10.4 µM | 6.91 µM | 26 µM | 8.02 µM | 27.2 µM | 23 µM | 3.71 µM |  |  |  |  |  |  | 
CCOC(=O)NC(NNc1ccc([N+](=O)[O-])cc1[N+](=O)[O-])(C(F)(F)F)C(F)(F)F | > 100 µM | > 100 µM | > 100 µM | > 100 µM | > 100 µM | 74.3 µM | > 100 µM | 77 µM | > 100 µM |  | 58.9 µM | > 100 µM |  |  |  |  |  |  | 
CC(=O)N1CC[N+](C)(CCCCN2c3ccccc3Sc3cc(N=[N+]=[N-])ccc32)CC1 | > 100 µM | > 100 µM | > 100 µM | > 100 µM | > 100 µM | > 100 µM | > 100 µM | > 100 µM | > 100 µM | > 100 µM | > 100 µM | > 100 µM |  |  |  |  |  |  | 
O=C1OC2c3ccccc3C(=O)C2(c2ccccc2)N1c1ccccc1 (centres undefined) | > 200 µM | > 200 µM | > 200 µM | > 200 µM | > 200 µM | > 200 µM | > 200 µM | > 200 µM | > 200 µM | > 200 µM | > 200 µM | > 200 µM |  |  |  |  |  |  | 
O=C(Nc1ccccc1)Nn1c(-c2cccs2)nc2ccc(I)cc2c1=O | 25.6 µM | 10.4 µM | 58.6 µM | 74.6 µM | 49.4 µM | > 100 µM | > 100 µM | 44.7 µM | 87.7 µM | 90.4 µM | 21.8 µM | 53.6 µM |  |  |  |  |  |  | 
CC(=O)O[C@H]1[C@@H](OC2CCCC2(c2ccccc2)c2ccccc2)O[N+]([O-])=C[C@@]12COCc1cc3c(cc12)OCO3 (some centres undefined) | 34.6 µM | > 23.7 µM | > 25.7 µM | > 100 µM | > 45.4 µM | > 100 µM | 67 µM | 5.35 µM | > 45.2 µM | 15.1 µM | > 100 µM | > 28.4 µM |  |  |  |  |  |  | 
